Measurements: ChEMBL document CHEMBL1149679 (Bioorg Med Chem Lett, 2007)

Tested on: not listed separately
Assay: Aqueous solubility at pH6.5
Format: physicochemical
Details: buffer, pH 6.5

Row | solubility | Structure (SMILES)
1 | < 1 µg/mL | CCCCCc1ccc(S(=O)(=O)NCCc2nc(-c3cccs3)[nH]c2-c2ccc(OC)cc2)cc1

Target: T1, Polyunsaturated fatty acid lipoxygenase ALOX15 (Oryctolagus cuniculus, UniProt P12530)
T1 sequence (P12530 whole entry): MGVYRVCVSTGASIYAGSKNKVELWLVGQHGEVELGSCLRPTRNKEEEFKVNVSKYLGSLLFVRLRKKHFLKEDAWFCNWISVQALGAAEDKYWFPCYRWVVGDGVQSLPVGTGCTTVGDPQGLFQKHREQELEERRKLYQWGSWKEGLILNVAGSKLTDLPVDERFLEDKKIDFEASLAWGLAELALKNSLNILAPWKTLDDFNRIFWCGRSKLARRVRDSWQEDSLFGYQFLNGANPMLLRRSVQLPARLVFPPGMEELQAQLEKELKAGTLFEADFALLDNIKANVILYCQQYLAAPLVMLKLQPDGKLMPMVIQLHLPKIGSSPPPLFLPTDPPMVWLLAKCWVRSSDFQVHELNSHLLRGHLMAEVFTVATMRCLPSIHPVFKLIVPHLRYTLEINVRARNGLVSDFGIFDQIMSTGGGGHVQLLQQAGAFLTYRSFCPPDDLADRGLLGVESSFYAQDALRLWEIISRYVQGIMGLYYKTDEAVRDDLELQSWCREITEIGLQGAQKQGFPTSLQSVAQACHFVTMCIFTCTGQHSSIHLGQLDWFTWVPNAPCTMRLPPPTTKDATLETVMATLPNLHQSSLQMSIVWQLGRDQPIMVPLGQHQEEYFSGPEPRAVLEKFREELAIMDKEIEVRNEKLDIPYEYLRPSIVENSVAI
Assay: Inhibition of rabbit 15-lipoxygenase in presence of linoleic acid
Details: not given

Row | Structure (SMILES) | IC50
2 | COc1ccc(-c2[nH]c(-c3ccccc3)nc2CCNS(=O)(=O)N2CCN(c3ccccc3)CC2)cc1 | 212 nM
3 | CCCCCc1ccc(S(=O)(=O)NCCc2nc(C(C)(C)C)[nH]c2-c2ccc(OC)cc2)cc1 | 1920 nM
4 | CCCCCc1ccc(S(=O)(=O)NCCc2nc(-c3cccc([N+](=O)[O-])c3)[nH]c2-c2ccc(OC)cc2)cc1 | 99 nM
5 | COc1ccc(-c2[nH]c(-c3ccccc3)nc2CCNS(=O)(=O)N[C@H]2CCN(Cc3ccccc3)C2)cc1 | 272 nM
6 | CCCCCc1ccc(S(=O)(=O)NCCc2nc(-c3ccccn3)[nH]c2-c2ccc(OC)cc2)cc1 | 970 nM
7 | COc1ccc(-c2[nH]c(-c3ccccc3)nc2CCNS(=O)(=O)c2ccc(C)cc2)cc1 | 364 nM
8 | CCCCCc1ccc(S(=O)(=O)NCCc2nc(C3CC3)[nH]c2-c2ccc(OC)cc2)cc1 | > 10000 nM
9 | CCCCCc1ccc(S(=O)(=O)NCCc2nc(C)[nH]c2-c2ccc(OC)cc2)cc1 | > 10000 nM

The next compounds have a lower IC50 than those just listed; values first:

Row | IC50 | Structure (SMILES)
10 | 33 nM | CCCCCc1ccc(S(=O)(=O)NCCc2nc(-c3ccccc3)[nH]c2-c2ccccc2)cc1
11 | 91 nM | CCCCCN1CCN(S(=O)(=O)NCCc2nc(-c3cccs3)[nH]c2-c2ccc(OC)cc2)CC1
12 | 11 nM | COc1ccc(-c2[nH]c(-c3cccs3)nc2CCNS(=O)(=O)N(C)[C@@H]2CCN(Cc3ccc(Cl)c(Cl)c3)C2)cc1
13 | 53 nM | CCCCCc1ccc(S(=O)(=O)NCCCc2nc(-c3cccs3)[nH]c2-c2ccc(OC)cc2)cc1
14 | 38 nM | COc1ccc(-c2[nH]c(-c3cccs3)nc2CCNS(=O)(=O)N(C)[C@@H]2CCN(Cc3ccccc3)C2)cc1
15 | 59 nM | CCCCCc1ccc(S(=O)(=O)NCCc2nc(-c3ccccc3)[nH]c2-c2ccc(F)cc2)cc1
16 | 80 nM | COc1ccc(-c2[nH]c(-c3ccccc3)nc2CCNS(=O)(=O)N(C)[C@H]2CCN(Cc3ccccc3)C2)cc1
17 | 10 nM | CCN([C@@H]1CCN(C(C)(C)c2ccccc2)C1)S(=O)(=O)NCCc1nc(-c2cccs2)[nH]c1-c1ccc(OC)cc1
18 | 6 nM | CCCCCc1ccc(S(=O)(=O)NCCc2nc(-c3cccs3)[nH]c2-c2ccc(OC)cc2)cc1

Target: T2, Polyunsaturated fatty acid lipoxygenase ALOX12 (Homo sapiens) (UniProt P18054)
T2 sequence (whole entry): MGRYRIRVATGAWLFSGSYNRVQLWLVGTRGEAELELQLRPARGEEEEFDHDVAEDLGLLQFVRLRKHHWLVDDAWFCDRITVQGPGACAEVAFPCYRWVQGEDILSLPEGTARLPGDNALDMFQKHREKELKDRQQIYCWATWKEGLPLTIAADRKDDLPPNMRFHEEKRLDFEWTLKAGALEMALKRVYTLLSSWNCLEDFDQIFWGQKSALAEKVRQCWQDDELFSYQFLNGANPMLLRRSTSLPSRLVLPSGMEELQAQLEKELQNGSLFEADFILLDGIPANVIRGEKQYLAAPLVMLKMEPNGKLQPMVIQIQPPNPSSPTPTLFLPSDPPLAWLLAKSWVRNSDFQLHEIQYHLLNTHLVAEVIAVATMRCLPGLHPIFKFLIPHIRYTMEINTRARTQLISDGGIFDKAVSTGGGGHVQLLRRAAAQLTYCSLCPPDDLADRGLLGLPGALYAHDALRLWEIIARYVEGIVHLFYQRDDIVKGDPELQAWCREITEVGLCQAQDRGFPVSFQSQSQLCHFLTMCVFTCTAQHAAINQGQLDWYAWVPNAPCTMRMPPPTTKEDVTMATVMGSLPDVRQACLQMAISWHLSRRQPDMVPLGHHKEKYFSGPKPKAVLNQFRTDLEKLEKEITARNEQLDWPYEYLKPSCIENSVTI
Assay: Inhibition of platelet 12-lipoxygenase at 10 uM
Details: not given

Row | inhibition | Structure (SMILES)
19 | 32% | CCCCCc1ccc(S(=O)(=O)NCCc2nc(-c3ccccc3)[nH]c2-c2ccccc2)cc1
20 | 42% | COc1ccc(-c2[nH]c(-c3cccs3)nc2CCNS(=O)(=O)N(C)[C@@H]2CCN(Cc3ccc(Cl)c(Cl)c3)C2)cc1
21 | 47% | CCCCCc1ccc(S(=O)(=O)NCCc2nc(-c3ccccc3)[nH]c2-c2ccc(F)cc2)cc1
22 | 50% | CCCCCc1ccc(S(=O)(=O)NCCc2nc(-c3cccs3)[nH]c2-c2ccc(OC)cc2)cc1

Target: T3, Polyunsaturated fatty acid lipoxygenase ALOX15B (Homo sapiens) (UniProt O15296)
T3 sequence (whole entry): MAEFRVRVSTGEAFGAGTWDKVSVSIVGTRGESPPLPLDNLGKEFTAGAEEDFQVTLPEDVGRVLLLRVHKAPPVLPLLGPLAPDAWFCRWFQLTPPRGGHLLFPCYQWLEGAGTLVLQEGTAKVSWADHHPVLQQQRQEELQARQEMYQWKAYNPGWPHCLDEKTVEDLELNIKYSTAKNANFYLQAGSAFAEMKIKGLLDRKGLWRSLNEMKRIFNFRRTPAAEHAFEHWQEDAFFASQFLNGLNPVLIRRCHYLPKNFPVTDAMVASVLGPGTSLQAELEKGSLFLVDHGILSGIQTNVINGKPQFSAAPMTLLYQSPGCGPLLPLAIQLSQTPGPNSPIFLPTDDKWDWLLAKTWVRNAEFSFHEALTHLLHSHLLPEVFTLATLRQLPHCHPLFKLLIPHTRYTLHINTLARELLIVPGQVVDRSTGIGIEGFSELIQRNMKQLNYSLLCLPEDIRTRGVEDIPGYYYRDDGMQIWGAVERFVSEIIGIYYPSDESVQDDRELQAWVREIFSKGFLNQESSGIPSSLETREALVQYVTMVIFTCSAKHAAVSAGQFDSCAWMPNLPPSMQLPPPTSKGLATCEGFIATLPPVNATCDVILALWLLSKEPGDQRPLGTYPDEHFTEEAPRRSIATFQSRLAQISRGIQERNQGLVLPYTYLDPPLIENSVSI
Assay: Inhibition of human recombinant 15-lipoxygenase over-expressed in CHO cells at 10 uM
Format: cell-based
Details: not given

Row | inhibition | Structure (SMILES)
23 | 98% | CCCCCc1ccc(S(=O)(=O)NCCc2nc(-c3cccs3)[nH]c2-c2ccc(OC)cc2)cc1

Tested on: not listed separately
Assay: Hydrophilicity, log D at pH 6.5
Format: physicochemical
Details: buffer

Row | logD | Structure (SMILES)
24 | > 6 | CCCCCc1ccc(S(=O)(=O)NCCc2nc(-c3cccs3)[nH]c2-c2ccc(OC)cc2)cc1

Target: T1, Polyunsaturated fatty acid lipoxygenase ALOX15
Assay: Inhibition of rabbit 15-lipoxygenase in presence of arachidonic acid
Details: not given

Row | Structure (SMILES) | IC50
25 | COc1ccc(-c2[nH]c(-c3ccccc3)nc2CCNS(=O)(=O)N2CCN(c3ccccc3)CC2)cc1 | 3450 nM
26 | CCCCCc1ccc(S(=O)(=O)NCCc2nc(C(C)(C)C)[nH]c2-c2ccc(OC)cc2)cc1 | > 10000 nM
27 | CCCCCc1ccc(S(=O)(=O)NCCc2nc(-c3cccc([N+](=O)[O-])c3)[nH]c2-c2ccc(OC)cc2)cc1 | 1100 nM
28 | COc1ccc(-c2[nH]c(-c3ccccc3)nc2CCNS(=O)(=O)N[C@H]2CCN(Cc3ccccc3)C2)cc1 | 2410 nM
29 | CCCCCc1ccc(S(=O)(=O)NCCc2nc(-c3ccccn3)[nH]c2-c2ccc(OC)cc2)cc1 | 5320 nM
30 | COc1ccc(-c2[nH]c(-c3ccccc3)nc2CCNS(=O)(=O)c2ccc(C)cc2)cc1 | 2800 nM
31 | CCCCCc1ccc(S(=O)(=O)NCCc2nc(C3CC3)[nH]c2-c2ccc(OC)cc2)cc1 | > 10000 nM

Second part, the compound after the results:

Row | IC50 | Structure (SMILES)
32 | 162 nM | CCCCCc1ccc(S(=O)(=O)NCCc2nc(-c3ccccc3)[nH]c2-c2ccccc2)cc1
33 | 646 nM | CCCCCN1CCN(S(=O)(=O)NCCc2nc(-c3cccs3)[nH]c2-c2ccc(OC)cc2)CC1
34 | 83 nM | COc1ccc(-c2[nH]c(-c3cccs3)nc2CCNS(=O)(=O)N(C)[C@@H]2CCN(Cc3ccc(Cl)c(Cl)c3)C2)cc1
35 | 396 nM | CCCCCc1ccc(S(=O)(=O)NCCCc2nc(-c3cccs3)[nH]c2-c2ccc(OC)cc2)cc1
36 | 375 nM | COc1ccc(-c2[nH]c(-c3cccs3)nc2CCNS(=O)(=O)N(C)[C@@H]2CCN(Cc3ccccc3)C2)cc1
37 | 261 nM | CCCCCc1ccc(S(=O)(=O)NCCc2nc(-c3ccccc3)[nH]c2-c2ccc(F)cc2)cc1
38 | 82.2 nM | COc1ccc(-c2[nH]c(-c3ccccc3)nc2CCNS(=O)(=O)N(C)[C@H]2CCN(Cc3ccccc3)C2)cc1
39 | 132 nM | CCN([C@@H]1CCN(C(C)(C)c2ccccc2)C1)S(=O)(=O)NCCc1nc(-c2cccs2)[nH]c1-c1ccc(OC)cc1
40 | 13 nM | CCCCCc1ccc(S(=O)(=O)NCCc2nc(-c3cccs3)[nH]c2-c2ccc(OC)cc2)cc1

Tested on: not listed separately
Assay: Cmax in Sprague-Dawley rat at 7 mg/kg, po
Format: ADME, organism-based
Parameters: dose 7 mg/kg, route oral
Details: in vivo

Row | Cmax | Structure (SMILES)
41 | 600 nM | CCCCCc1ccc(S(=O)(=O)NCCc2nc(-c3cccs3)[nH]c2-c2ccc(OC)cc2)cc1

Target: T4, Polyunsaturated fatty acid 5-lipoxygenase (Homo sapiens, UniProt P09917)
T4 sequence (P09917 whole entry): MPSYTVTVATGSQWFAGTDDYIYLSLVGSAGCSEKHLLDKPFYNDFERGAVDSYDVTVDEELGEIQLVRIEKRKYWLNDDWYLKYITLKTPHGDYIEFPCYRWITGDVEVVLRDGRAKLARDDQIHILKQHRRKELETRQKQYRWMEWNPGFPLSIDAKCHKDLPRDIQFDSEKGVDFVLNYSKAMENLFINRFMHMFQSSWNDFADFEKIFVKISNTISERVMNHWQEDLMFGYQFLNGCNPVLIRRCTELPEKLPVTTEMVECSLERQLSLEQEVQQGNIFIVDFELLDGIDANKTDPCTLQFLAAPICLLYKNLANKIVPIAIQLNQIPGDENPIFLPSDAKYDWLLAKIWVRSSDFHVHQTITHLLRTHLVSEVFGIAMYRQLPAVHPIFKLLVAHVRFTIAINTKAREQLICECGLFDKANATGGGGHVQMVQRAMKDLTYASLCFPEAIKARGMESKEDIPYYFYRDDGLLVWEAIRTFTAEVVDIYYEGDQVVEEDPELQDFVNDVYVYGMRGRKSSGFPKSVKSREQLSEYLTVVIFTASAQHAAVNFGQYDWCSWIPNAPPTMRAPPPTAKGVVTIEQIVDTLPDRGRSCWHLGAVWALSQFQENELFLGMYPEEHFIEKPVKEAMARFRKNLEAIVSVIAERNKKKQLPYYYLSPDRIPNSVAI
Assay: Inhibition of 5-lipoxygenase
Details: not given

Row | IC50 | Structure (SMILES)
42 | > 10000 nM | CCCCCc1ccc(S(=O)(=O)NCCc2nc(-c3cccs3)[nH]c2-c2ccc(OC)cc2)cc1

Target: T5, Polyunsaturated fatty acid lipoxygenase ALOX12 (Homo sapiens, UniProt P18054)
T5 sequence (P18054 whole entry): T2 sequence (whole entry)
Assay: Inhibition of platelet 12-lipoxygenase
Details: not given

Row | IC50 | Structure (SMILES)
43 | 9700 nM | CCCCCc1ccc(S(=O)(=O)NCCc2nc(-c3cccs3)[nH]c2-c2ccc(OC)cc2)cc1

Target: T6, Polyunsaturated fatty acid 5-lipoxygenase (Homo sapiens) (UniProt P09917)
T6 sequence (whole entry): T4 sequence (P09917 whole entry)
Assay: Inhibition of human 5-lipoxygenase at 10 uM
Details: not given

Row | inhibition | Structure (SMILES)
44 | 39% | CCCCCc1ccc(S(=O)(=O)NCCc2nc(-c3ccccc3)[nH]c2-c2ccccc2)cc1
45 | 67% | COc1ccc(-c2[nH]c(-c3cccs3)nc2CCNS(=O)(=O)N(C)[C@@H]2CCN(Cc3ccc(Cl)c(Cl)c3)C2)cc1
46 | 45% | CCCCCc1ccc(S(=O)(=O)NCCc2nc(-c3ccccc3)[nH]c2-c2ccc(F)cc2)cc1
47 | 41% | CCCCCc1ccc(S(=O)(=O)NCCc2nc(-c3cccs3)[nH]c2-c2ccc(OC)cc2)cc1
